Laboratory results taken from ChEMBL document CHEMBL1909046, “DrugMatrix in vitro pharmacology data”.

Key:
[1] = molecular target: Voltage-gated inwardly rectifying potassium channel KCNH2 (Homo sapiens, UniProt Q12809); details: hek293; further: in other assays of this panel Not Active means under 50% inhibition at 10 µM
[2] = molecular target: T1, Muscarinic acetylcholine receptor M2 (Homo sapiens, UniProt P08172); type: cell membranes, CHO-K1, Membrane; details: cho-k1; further: in other assays of this panel Not Active means under 50% inhibition at 10 µM
T1 sequence (P08172 whole entry): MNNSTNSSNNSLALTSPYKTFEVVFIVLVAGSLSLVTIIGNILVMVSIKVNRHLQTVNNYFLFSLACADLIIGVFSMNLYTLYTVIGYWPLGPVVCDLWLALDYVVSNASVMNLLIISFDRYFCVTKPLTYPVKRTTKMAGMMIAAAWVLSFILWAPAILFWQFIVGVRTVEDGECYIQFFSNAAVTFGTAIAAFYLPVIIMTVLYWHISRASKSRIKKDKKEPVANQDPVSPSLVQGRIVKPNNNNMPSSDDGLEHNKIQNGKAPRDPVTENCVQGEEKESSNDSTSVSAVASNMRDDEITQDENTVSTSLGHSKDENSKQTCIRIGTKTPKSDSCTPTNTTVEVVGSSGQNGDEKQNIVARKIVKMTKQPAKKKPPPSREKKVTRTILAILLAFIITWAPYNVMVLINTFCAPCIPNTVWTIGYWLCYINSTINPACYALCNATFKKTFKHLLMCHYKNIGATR

[3] = molecular target: Melanocortin receptor 4 (Homo sapiens, UniProt P32245); type: cell membranes, HEK293, Membrane; details: hek293; further: in other assays of this panel Not Active means under 50% inhibition at 10 µM
Melanocortin receptor 4, sequence (P32245 whole entry): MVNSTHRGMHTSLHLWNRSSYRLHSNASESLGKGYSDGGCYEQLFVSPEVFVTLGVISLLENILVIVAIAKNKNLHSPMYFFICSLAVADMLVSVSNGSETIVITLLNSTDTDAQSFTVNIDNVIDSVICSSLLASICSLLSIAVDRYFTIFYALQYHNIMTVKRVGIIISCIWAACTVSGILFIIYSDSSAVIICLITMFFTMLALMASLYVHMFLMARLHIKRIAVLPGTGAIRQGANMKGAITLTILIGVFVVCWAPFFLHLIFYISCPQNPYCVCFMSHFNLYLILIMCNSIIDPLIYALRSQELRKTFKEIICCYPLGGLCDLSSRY

[4] = molecular target: 5-hydroxytryptamine receptor 4 (Cavia porcellus, UniProt O70528); type: cell membranes, Dunkin-Hartley, Striatum, Membrane; further: in other assays of this panel Not Active means under 50% inhibition at 10 µM
5-hydroxytryptamine receptor 4, sequence (O70528 whole entry): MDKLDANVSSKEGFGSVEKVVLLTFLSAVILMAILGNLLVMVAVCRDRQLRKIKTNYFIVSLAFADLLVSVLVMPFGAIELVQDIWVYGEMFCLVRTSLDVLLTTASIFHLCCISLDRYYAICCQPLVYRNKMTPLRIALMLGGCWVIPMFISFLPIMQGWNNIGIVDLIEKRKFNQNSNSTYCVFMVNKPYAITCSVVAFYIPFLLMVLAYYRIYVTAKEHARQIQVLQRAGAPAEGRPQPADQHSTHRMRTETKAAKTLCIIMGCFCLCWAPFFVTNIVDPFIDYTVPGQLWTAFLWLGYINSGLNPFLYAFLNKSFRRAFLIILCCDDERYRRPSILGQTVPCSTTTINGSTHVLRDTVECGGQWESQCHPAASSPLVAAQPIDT

[5] = molecular target: Beta-3 adrenergic receptor (Homo sapiens, UniProt P13945); assay: DRUGMATRIX: Adrenergic beta3 radioligand binding (ligand: [125I] Cyanopindolol); type: cell membranes, HEK293, Membrane; details: hek293; Not Active = under 50% inhibition at 10 µM
Beta-3 adrenergic receptor, sequence (P13945 whole entry): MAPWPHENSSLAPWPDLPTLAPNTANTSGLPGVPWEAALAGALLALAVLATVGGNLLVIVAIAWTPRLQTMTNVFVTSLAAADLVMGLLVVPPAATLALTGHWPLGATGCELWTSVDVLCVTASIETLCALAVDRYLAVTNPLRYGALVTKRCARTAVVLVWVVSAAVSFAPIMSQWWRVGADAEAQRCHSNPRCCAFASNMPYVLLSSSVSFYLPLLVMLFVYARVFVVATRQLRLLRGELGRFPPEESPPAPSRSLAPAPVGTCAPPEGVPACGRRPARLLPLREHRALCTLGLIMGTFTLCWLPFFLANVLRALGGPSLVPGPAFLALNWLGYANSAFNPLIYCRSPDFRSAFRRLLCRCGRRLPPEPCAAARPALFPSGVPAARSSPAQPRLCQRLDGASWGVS

Voltage-gated inwardly rectifying potassium channel KCNH2, sequence (Q12809 whole entry): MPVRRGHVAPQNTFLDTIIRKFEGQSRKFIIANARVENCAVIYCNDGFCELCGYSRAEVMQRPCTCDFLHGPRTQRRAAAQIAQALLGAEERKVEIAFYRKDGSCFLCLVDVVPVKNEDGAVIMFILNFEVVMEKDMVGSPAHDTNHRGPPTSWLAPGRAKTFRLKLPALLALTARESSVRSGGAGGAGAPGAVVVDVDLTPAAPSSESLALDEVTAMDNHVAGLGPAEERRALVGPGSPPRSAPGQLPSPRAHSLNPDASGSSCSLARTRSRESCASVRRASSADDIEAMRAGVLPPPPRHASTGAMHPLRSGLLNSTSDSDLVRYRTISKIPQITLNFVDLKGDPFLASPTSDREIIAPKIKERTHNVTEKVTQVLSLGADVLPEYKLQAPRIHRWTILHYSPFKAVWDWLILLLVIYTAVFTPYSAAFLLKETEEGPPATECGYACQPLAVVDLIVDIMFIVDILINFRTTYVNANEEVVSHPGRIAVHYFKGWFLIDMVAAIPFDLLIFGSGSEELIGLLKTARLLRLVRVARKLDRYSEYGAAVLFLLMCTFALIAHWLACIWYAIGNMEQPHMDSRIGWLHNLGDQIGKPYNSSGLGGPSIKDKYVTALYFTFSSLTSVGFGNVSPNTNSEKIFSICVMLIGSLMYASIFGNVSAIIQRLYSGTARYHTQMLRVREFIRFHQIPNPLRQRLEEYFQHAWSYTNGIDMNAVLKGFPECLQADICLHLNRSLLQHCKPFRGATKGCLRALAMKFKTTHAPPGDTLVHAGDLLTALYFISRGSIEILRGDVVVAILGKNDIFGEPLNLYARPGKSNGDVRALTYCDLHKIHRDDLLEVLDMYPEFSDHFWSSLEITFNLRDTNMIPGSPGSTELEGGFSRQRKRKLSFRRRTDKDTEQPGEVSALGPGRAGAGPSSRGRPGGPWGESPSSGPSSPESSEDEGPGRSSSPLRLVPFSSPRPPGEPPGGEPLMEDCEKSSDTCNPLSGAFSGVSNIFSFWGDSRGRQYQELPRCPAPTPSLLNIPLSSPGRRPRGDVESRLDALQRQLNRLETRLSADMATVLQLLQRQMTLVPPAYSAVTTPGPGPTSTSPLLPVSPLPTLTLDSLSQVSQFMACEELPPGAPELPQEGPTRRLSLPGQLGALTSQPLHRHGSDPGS

COc1ccc2c3c1O[C@H]1C[C@@H](O)C=C[C@@]31CCN(C)C2 [GALANTAMINE]
Not Active: IC50 [1] | Ki [1] | IC50 [2] | IC50 [3] | IC50 [4] | IC50 [5]

O=C(O)CCNC(=O)c1ccccc1 [BETAMIPRON]
Not Active: IC50 [1] | Ki [1] | IC50 [2] | IC50 [3] | IC50 [4] | IC50 [5]

C#C[C@]1(OC(C)=O)CC[C@H]2[C@@H]3CCC4=C[C@@H](OC(C)=O)CC[C@@H]4[C@H]3CC[C@@]21C [ETHYNODIOL DIACETATE]
Not Active: IC50 [1] | Ki [1] | IC50 [2] | IC50 [3] | IC50 [4] | IC50 [5]

Oc1cccc(O)c1O [PYROGALLOL]
Not Active: IC50 [1] | Ki [1] | IC50 [2] | IC50 [3] | IC50 [4] | IC50 [5]

O=C/C=C/c1ccccc1
Not Active: IC50 [1] | Ki [1] | IC50 [2] | IC50 [3] | IC50 [4] | IC50 [5]

CN/C(=N\CCSCc1nc[nH]c1C)NC#N [CIMETIDINE]
Not Active: IC50 [1] | Ki [1] | IC50 [2] | IC50 [3] | IC50 [4] | IC50 [5]

C[n+]1ccc(-c2cc[n+](C)cc2)cc1.[Cl-].[Cl-] [PARAQUAT DICHLORIDE]
Not Active: IC50 [1] | Ki [1] | IC50 [2] | IC50 [3] | IC50 [4] | IC50 [5]

CCCN(CCC)S(=O)(=O)c1ccc(C(=O)O)cc1 [PROBENECID]
Not Active: IC50 [1] | Ki [1] | IC50 [2] | IC50 [3] | IC50 [4] | IC50 [5]

C#CC1(O)CC[C@H]2[C@@H]3CCC4=CC(=O)CC[C@@H]4[C@H]3CC[C@@]21CC (some centres undefined) [NORGESTREL]
Not Active: IC50 [1] | Ki [1] | IC50 [2] | IC50 [3] | IC50 [4] | IC50 [5]
